Values of other authors, collected in patent US20240277756A1 (NACAMED AS, priority 2021, published 2024).

Columns and labels:
[1] = oral
[2] = calculated log P values from Foye's Principles of Medicinal Chemistry, Seventh Edition (2011)

| Structure (SMILES) | absolute bioavailability (in words) [1] | log P [2] |
| --- | --- | --- |
| C[C@@H]1[C@H](O)[C@@H](C)/C=C/C=C/C=C/C=C/C=C/C=C/C=C/[C@H](O[C@@H]2O[C@H](C)[C@@H](O)[C@H](N)[C@@H]2O)C[C@@H]2O[C@](O)(C[C@@H](O)C[C@@H](O)[C@H](O)CC[C@@H](O)C[C@@H](O)CC(=O)O[C@H]1C)C[C@H](O)[C@H]2C(=O)O [amphotericin B] | very low | – |
| CCCc1nc(C)c2c(=O)nc(-c3cc(S(=O)(=O)N4CCN(CC)CC4)ccc3OCC)[nH]n12 [valdanafil] | – | 3.64 |
